Reference: US12281149B2, “Modulators of G-protein coupled receptors” (priority 2021, dated 2025)
*1 amine or outer side, *2 acyl side, *3 side chain or, on linkers, in order; H or OH if unused. Where a SMILES comes first, the peptide text is derived from it. Side-chain parts run from the residue outwards. [ ]: non-standard residue; d: D form. The star is where a group is joined. C20 diacid = O=C(O)CCCCCCCCCCCCCCCCCCC(=O)*; X56 = CC(C)(C(=O)*)c1cc(F)cc(C(N)=O)c1; γGlu = O=C(O)[C@H](CCC(=O)[*:2])N[*:1]; X54 = Cc1cn(C(C)(C)C(=O)*)nc1C(F)(F)F; X28 = O=C(C1(n2cccn2)CCNCC1)*; X82 = CC(C)(C(=O)*)n1cc(N)cn1; X76 = CC(C)(C(=O)*)c1cncnc1; AEEA = NCCOCCOCC(=O)O; Aib = CC(C)(N)C(=O)O; βAla = NCCC(=O)O

How the values were obtained:
Type in all cases: cell-based
[1] = target: T1, GIP receptor (Homo sapiens, UniProt P48546); assay: PathHunter β-arrestin assay, GIP receptor; design: host or cells: PathHunter CHO-K1 GIPR β-Arrestin Cell Line; conditions: β-arrestin-2 recruitment, PathHunter CHO-K1 GIPR β-Arrestin Cell Line, 90 min at 37° C.; normalized to GIP; read-out: GIPR β Arrestin EC50
T1 sequence (P48546 22-466): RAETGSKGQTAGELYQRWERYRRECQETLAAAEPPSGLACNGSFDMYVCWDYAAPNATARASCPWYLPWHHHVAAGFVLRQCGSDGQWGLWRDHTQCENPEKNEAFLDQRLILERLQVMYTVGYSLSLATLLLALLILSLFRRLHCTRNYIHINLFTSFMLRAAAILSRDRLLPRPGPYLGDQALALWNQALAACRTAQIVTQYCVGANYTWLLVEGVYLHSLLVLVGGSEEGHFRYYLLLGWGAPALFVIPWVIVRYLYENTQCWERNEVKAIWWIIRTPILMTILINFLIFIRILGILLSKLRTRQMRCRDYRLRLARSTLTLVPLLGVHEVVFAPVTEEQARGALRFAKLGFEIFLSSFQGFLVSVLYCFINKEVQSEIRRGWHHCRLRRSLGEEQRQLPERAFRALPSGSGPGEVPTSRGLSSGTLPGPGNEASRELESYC

[2] = target: T2, GLP-1 receptor (Homo sapiens, UniProt P43220); assay: PathHunter β-arrestin assay, GLP-1 receptor; design: host or cells: PathHunter CHO-K1 GLP1R β-Arrestin Cell Line; conditions: β-arrestin-2 recruitment, PathHunter CHO-K1 GLP1R β-Arrestin Cell Line, 90 min at 37° C.; normalized to GLP-1; read-out: GLP-1R β Arrestin EC50
T2 sequence (P43220 24-463): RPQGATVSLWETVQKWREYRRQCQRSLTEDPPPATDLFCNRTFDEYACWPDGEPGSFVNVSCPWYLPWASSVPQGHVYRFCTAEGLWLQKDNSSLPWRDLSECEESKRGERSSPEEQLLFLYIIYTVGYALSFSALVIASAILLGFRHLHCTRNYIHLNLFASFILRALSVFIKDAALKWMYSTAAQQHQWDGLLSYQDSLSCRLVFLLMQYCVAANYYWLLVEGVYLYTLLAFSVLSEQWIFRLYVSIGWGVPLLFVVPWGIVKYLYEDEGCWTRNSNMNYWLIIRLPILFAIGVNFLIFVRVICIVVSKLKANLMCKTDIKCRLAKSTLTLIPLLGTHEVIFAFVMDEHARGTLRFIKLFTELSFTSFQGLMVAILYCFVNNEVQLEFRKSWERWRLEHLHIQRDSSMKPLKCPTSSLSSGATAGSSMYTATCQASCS

[3] = target: T1, GIP receptor; assay: HitHunter cAMP assay, GIP receptor; conditions: for EC50: CHO cells stably expressing GIP receptor, cAMP accumulation, 30 min, read-out: EC50 GIP-1R; for Emax: CHO cells, cAMP, normalized to maximum signal from GIP (high) and DMSO (low), read-out: Emax GIP-1R
[4] = target: T2, GLP-1 receptor; assay: HitHunter cAMP assay, GLP-1 receptor; conditions: for EC50: CHO cells stably expressing human GLP-1 receptor, cAMP accumulation, 30 min, read-out: EC50 GLP-1R; for Emax: CHO cells, cAMP, normalized to maximum signal from GLP-1 (high) and DMSO (low), read-out: Emax GLP-1R

SMILES | EC50 [1] | EC50 [2] | EC50 [3] | Emax [3] | EC50 [4] | Emax [4]
CC[C@H](C)[C@H](NC(=O)[C@H](CC(C)C)NC(=O)[C@H](Cc1c[nH]c2ccccc12)NC(=O)[C@H](CCC(N)=O)NC(=O)[C@@H](NC(=O)[C@H](Cc1ccccc1)NC(=O)[C@H](C)NC(=O)[C@H](CCCCNC(=O)COCCOCCNC(=O)COCCOCCNC(=O)CC[C@H](NC(=O)CCCCCCCCCCCCCCCCCCC(=O)O)C(=O)O)NC(=O)[C@H](CCC(N)=O)NC(=O)[C@H](C)NC(=O)[C@@H](NC(=O)[C@H](CCCCN)NC(=O)[C@H](CC(=O)O)NC(=O)[C@H](CC(C)C)NC(=O)C(C)(C)NC(=O)[C@@H](NC(=O)[C@H](CO)NC(=O)[C@H](Cc1ccc(O)cc1)NC(=O)[C@H](CC(=O)O)NC(=O)[C@H](CO)NC(=O)[C@@H](NC(=O)[C@H](Cc1ccccc1)NC(=O)[C@@H](NC(=O)CNC(=O)[C@H](CCC(=O)O)NC(=O)CCNC(=O)C(C)(C)n1cc(N)cn1)[C@@H](C)O)[C@@H](C)O)[C@@H](C)CC)[C@@H](C)CC)C(C)C)C(=O)N[C@@H](C)C(=O)NCC(=O)NCC(=O)N1CCC[C@H]1C(=O)N[C@@H](CO)C(=O)N[C@@H](CO)C(=O)NCC(=O)N[C@@H](C)C(=O)N1CCC[C@H]1C(=O)N1CCC[C@H]1C(=O)N1CCC[C@H]1C(=O)N[C@@H](CO)C(N)=O [Compound 157] ({X82-βAla}-EGTFTSDYSI[Aib]LDKIAQK([AEEA-AEEA-γGlu-C20 diacid])AFVQWLIAGGPSSGAPPPS-NH2) | > 1000 nM | > 1000 nM | 10 to 100 nM | 106% | 0.1 to 1 nM | 100%
CC[C@H](C)[C@H](NC(=O)[C@H](CC(C)C)NC(=O)[C@H](Cc1c[nH]c2ccccc12)NC(=O)[C@H](CCC(N)=O)NC(=O)[C@@H](NC(=O)[C@H](Cc1ccccc1)NC(=O)[C@H](C)NC(=O)[C@H](CCCCNC(=O)COCCOCCNC(=O)COCCOCCNC(=O)CC[C@H](NC(=O)CCCCCCCCCCCCCCCCCCC(=O)O)C(=O)O)NC(=O)[C@H](CCC(N)=O)NC(=O)[C@H](C)NC(=O)[C@@H](NC(=O)[C@H](CCCCN)NC(=O)[C@H](CC(=O)O)NC(=O)[C@H](CC(C)C)NC(=O)C(C)(C)NC(=O)[C@@H](NC(=O)[C@H](CO)NC(=O)[C@H](Cc1ccc(O)cc1)NC(=O)[C@H](CC(=O)O)NC(=O)[C@H](CO)NC(=O)[C@@H](NC(=O)[C@H](Cc1ccccc1)NC(=O)[C@@H](NC(=O)CNC(=O)[C@H](CCC(=O)O)NC(=O)CCNC(=O)C(C)(C)n1cc(C)c(C(F)(F)F)n1)[C@@H](C)O)[C@@H](C)O)[C@@H](C)CC)[C@@H](C)CC)C(C)C)C(=O)N[C@@H](C)C(=O)NCC(=O)NCC(=O)N1CCC[C@H]1C(=O)N[C@@H](CO)C(=O)N[C@@H](CO)C(=O)NCC(=O)N[C@@H](C)C(=O)N1CCC[C@H]1C(=O)N1CCC[C@H]1C(=O)N1CCC[C@H]1C(=O)N[C@@H](CO)C(N)=O [Compound 158] ({X54-βAla}-EGTFTSDYSI[Aib]LDKIAQK([AEEA-AEEA-γGlu-C20 diacid])AFVQWLIAGGPSSGAPPPS-NH2) | > 1000 nM | > 1000 nM | 10 to 100 nM | 118% | 0.1 to 1 nM | 97%
CC[C@H](C)[C@H](NC(=O)[C@H](CC(C)C)NC(=O)[C@H](Cc1c[nH]c2ccccc12)NC(=O)[C@H](CCC(N)=O)NC(=O)[C@@H](NC(=O)[C@H](Cc1ccccc1)NC(=O)[C@H](C)NC(=O)[C@H](CCCCNC(=O)COCCOCCNC(=O)COCCOCCNC(=O)CC[C@H](NC(=O)CCCCCCCCCCCCCCCCCCC(=O)O)C(=O)O)NC(=O)[C@H](CCC(N)=O)NC(=O)[C@H](C)NC(=O)[C@@H](NC(=O)[C@H](CCCCN)NC(=O)[C@H](CC(=O)O)NC(=O)[C@H](CC(C)C)NC(=O)C(C)(C)NC(=O)[C@@H](NC(=O)[C@H](CO)NC(=O)[C@H](Cc1ccc(O)cc1)NC(=O)[C@H](CC(=O)O)NC(=O)[C@H](CO)NC(=O)[C@@H](NC(=O)[C@H](Cc1ccccc1)NC(=O)[C@@H](NC(=O)CNC(=O)[C@H](CCC(=O)O)NC(=O)CCNC(=O)C(C)(C)c1cc(F)cc(C(N)=O)c1)[C@@H](C)O)[C@@H](C)O)[C@@H](C)CC)[C@@H](C)CC)C(C)C)C(=O)N[C@@H](C)C(=O)NCC(=O)NCC(=O)N1CCC[C@H]1C(=O)N[C@@H](CO)C(=O)N[C@@H](CO)C(=O)NCC(=O)N[C@@H](C)C(=O)N1CCC[C@H]1C(=O)N1CCC[C@H]1C(=O)N1CCC[C@H]1C(=O)N[C@@H](CO)C(N)=O [Compound 159] ({X56-βAla}-EGTFTSDYSI[Aib]LDKIAQK([AEEA-AEEA-γGlu-C20 diacid])AFVQWLIAGGPSSGAPPPS-NH2) | > 1000 nM | > 1000 nM | 10 to 100 nM | 104% | 1 to 10 nM | 100%
CC[C@H](C)[C@H](NC(=O)[C@H](CC(C)C)NC(=O)[C@H](Cc1c[nH]c2ccccc12)NC(=O)[C@H](CCC(N)=O)NC(=O)[C@@H](NC(=O)[C@H](Cc1ccccc1)NC(=O)[C@H](C)NC(=O)[C@H](CCCCNC(=O)COCCOCCNC(=O)COCCOCCNC(=O)CC[C@H](NC(=O)CCCCCCCCCCCCCCCCCCC(=O)O)C(=O)O)NC(=O)[C@H](CCC(N)=O)NC(=O)[C@H](C)NC(=O)[C@@H](NC(=O)[C@H](CCCCN)NC(=O)[C@H](CC(=O)O)NC(=O)[C@H](CC(C)C)NC(=O)C(C)(C)NC(=O)[C@@H](NC(=O)[C@H](CO)NC(=O)[C@H](Cc1ccc(O)cc1)NC(=O)[C@H](CC(=O)O)NC(=O)[C@H](CO)NC(=O)[C@@H](NC(=O)[C@H](Cc1ccccc1)NC(=O)[C@@H](NC(=O)CNC(=O)[C@H](CCC(=O)O)NC(=O)CCNC(=O)C1(n2cccn2)CCNCC1)[C@@H](C)O)[C@@H](C)O)[C@@H](C)CC)[C@@H](C)CC)C(C)C)C(=O)N[C@@H](C)C(=O)NCC(=O)NCC(=O)N1CCC[C@H]1C(=O)N[C@@H](CO)C(=O)N[C@@H](CO)C(=O)NCC(=O)N[C@@H](C)C(=O)N1CCC[C@H]1C(=O)N1CCC[C@H]1C(=O)N1CCC[C@H]1C(=O)N[C@@H](CO)C(N)=O [Compound 160] ({X28-βAla}-EGTFTSDYSI[Aib]LDKIAQK([AEEA-AEEA-γGlu-C20 diacid])AFVQWLIAGGPSSGAPPPS-NH2) | > 1000 nM | > 1000 nM | 100 to 1000 nM | 94% | 10 to 100 nM | 97%
CC[C@H](C)[C@H](NC(=O)[C@H](CC(C)C)NC(=O)[C@H](Cc1c[nH]c2ccccc12)NC(=O)[C@H](CCC(N)=O)NC(=O)[C@@H](NC(=O)[C@H](Cc1ccccc1)NC(=O)[C@H](C)NC(=O)[C@H](CCCCNC(=O)COCCOCCNC(=O)COCCOCCNC(=O)CC[C@H](NC(=O)CCCCCCCCCCCCCCCCCCC(=O)O)C(=O)O)NC(=O)[C@H](CCC(N)=O)NC(=O)[C@H](C)NC(=O)[C@@H](NC(=O)[C@H](CCCCN)NC(=O)[C@H](CC(=O)O)NC(=O)[C@H](CC(C)C)NC(=O)C(C)(C)NC(=O)[C@@H](NC(=O)[C@H](CO)NC(=O)[C@H](Cc1ccc(O)cc1)NC(=O)[C@H](CC(=O)O)NC(=O)[C@H](CO)NC(=O)[C@@H](NC(=O)[C@H](Cc1ccccc1)NC(=O)[C@@H](NC(=O)CNC(=O)[C@H](CCC(=O)O)NC(=O)CCNC(=O)C(C)(C)c1cncnc1)[C@@H](C)O)[C@@H](C)O)[C@@H](C)CC)[C@@H](C)CC)C(C)C)C(=O)N[C@@H](C)C(=O)NCC(=O)NCC(=O)N1CCC[C@H]1C(=O)N[C@@H](CO)C(=O)N[C@@H](CO)C(=O)NCC(=O)N[C@@H](C)C(=O)N1CCC[C@H]1C(=O)N1CCC[C@H]1C(=O)N1CCC[C@H]1C(=O)N[C@@H](CO)C(N)=O [Compound 161] ({X76-βAla}-EGTFTSDYSI[Aib]LDKIAQK([AEEA-AEEA-γGlu-C20 diacid])AFVQWLIAGGPSSGAPPPS-NH2) | > 1000 nM | > 1000 nM | 10 to 100 nM | 94% | 0.1 to 1 nM | 113%
